This is an account of results in patent US20070275923A1, “CATIONIC PEPTIDES FOR siRNA [sequence] [sequence]” (NASTECH PHARMACEUTICAL COMPANY INC., priority 2006, published 2007).

By viability is commonly meant the share of living cells, or the viability signal relative to a control.

Residues, ends and D or L forms follow the SMILES beside them. *: point of attachment. Propanoyl(3-maleimido) = O=C1C=CC(=O)N1CCC(=O)*

Data set [1] is described as follows: in vitro. The conditions noted are these: C57BL/6J, mouse, mouse tail fibroblast (MTF) cells. As to the method: Mouse tail fibroblast (MTF) cells were derived from the tails of C57BL/6J mice. Tails were removed, immersed in 70% ethanol and then cut into small sections with a razor blade. The sections were washed three times with PBS and then incubated in a shaker at 37° C. with 0.5 mg/mL collagenase, 100 units/mL penicillin and 100 μg/mL streptomycin to disrupt tissue. Tail sections were then cultured in complete media (Dulbecco's Modified […] Medium with 20% FBS, 1 mM sodium pyruvate, nonessential amino acids and 100 units/mL penicillin and 100 μg/mL streptomycin) until cells were established. Cells were cultured at 37° C., 5% CO2 in complete media as outlined above.
Cells were be plated per well in a microtiter plate the day before transfection in complete media. The siRNA was be labeled, for example with a FAM, Alexa488, Alexa647 or Cy-5 conjugate. The cationic polymer peptide and siRNA were mixed in the microtiter plate complex with cells previously with OptiMEM. 7-AAD was added to each transfection to measure cell viability. Cells were transfected for three hours at 37° C., 5% CO2. The transfection mixture was removed and the cells were washed with TE buffer for about 10 minutes at 37° C., 5% CO2. Transfected cells were transferred to a V bottom plate and centrifuged. The TE buffer was removed and the transfected cells were resuspended in fluorescence activated cell sorting (FACS) buffer.
A non-transfection, siRNA alone, control was also performed. The peptide PN183 served herein as a positive cell-uptake control.
Cell-uptake is expressed as a percentage of the total cells with intracellular labeled siRNA. Cell Viability is also expressed as a percentage where 100% represents 100% viability. The MFI value is a relative value with a higher MFI value indicating a greater amount of labeled siRNA entered the cell. Within Table 3, “ND” means no data.

Data set [2] deals with Mouse tail fibroblast (MTF) cells. As to the kind of experiment: siRNA cell-uptake and MFI measured by FACS after peptide-mediated transfection of labeled siRNA. Type of data set: cell-based. The conditions noted are these: for % Cell-Uptake: % of total cells with intracellular labeled siRNA; for MFI: relative value. The method, then: SiRNA cell uptake was measured by FACS.
For the instant example, cell-uptake, mean fluorescent intensity (MFI) and cell viability was measured for each peptide. siRNA cell-uptake was measured by the presence of intracellular labeled siRNA. The cell-uptake assay determined the percentage of cells that contain the labeled siRNA. Mean Fluorescence Intensity (MFI) was used to determine the relative mean quantity of labeled siRNA that entered the cells.
A non-transfection, siRNA alone, control was also performed.
Within Table 3, “ND” means no data.
In general terms: A flow cytometer gives signals particle by particle.

Setting [3] is: peptide concentration 1 μM, 200 nM labeled siRNA.
Setting [4] is: peptide concentration 10 μM, 200 nM labeled siRNA.
Where [5] appears, read: peptide concentration 100 μM, 200 nM labeled siRNA.
Setting [6] is: peptide concentration 1 μM, 200 nM labeled siRNA, higher = more labeled siRNA entered the cell.
The mark [7] stands for this setting: peptide concentration 10 μM, 200 nM labeled siRNA, higher = more labeled siRNA entered the cell.
Where [8] appears, read: peptide concentration 100 μM, 200 nM labeled siRNA, higher = more labeled siRNA entered the cell.

In data set [1], “H-KKKKKKKKKK-NH2 [PN932, NH2-(Lys)10-amide]” returned a viability at 3 h, 1 µM of 97.3%; a viability at 3 h, 10 µM of 96.7%; a viability at 3 h, 100 µM of 98.4%. The “% Cell-Uptake” value in data set [2] (setting [3]) worked out at 0.4%. The “% Cell-Uptake” value in data set [2] (setting [4]) was 1%. In addition, in data set [2] (setting [5]), the “% Cell-Uptake” value was determined as 1%.
On to `CC[C@H](C)[C@H](NC(=O)[C@H](CCCCN)NC(=O)[C@@H](NC(=O)[C@H](CCC(N)=O)NC(=O)[C@H](CCCNC(=N)N)NC(=O)[C@H](CS)NC(=O)[C@@H](NC(=O)[C@H](CO)NC(=O)[C@H](CCCNC(=N)N)NC(=O)[C@H](Cc1c[nH]cn1)NC(=O)[C@H](Cc1c[nH]cn1)NC(=O)[C@H](Cc1c[nH]cn1)NC(=O)[C@H](Cc1c[nH]cn1)NC(=O)[C@H](Cc1c[nH]cn1)NC(=O)[C@@H](N)Cc1c[nH]cn1)C(C)C)[C@@H](C)CC)C(=O)N[C@@H](CS)C(=O)N[C@@H](CCCNC(=N)N)C(=O)N[C@@H](CCCNC(=N)N)C(=O)N[C@@H](CCCNC(=N)N)C(=O)NCC(=O)NCC(=O)N[C@@H](CS)C(=O)N[C@@H](Cc1ccc(O)cc1)C(=O)N[C@@H](Cc1ccc(O)cc1)C(=O)N[C@@H](CCCCN)C(=O)N[C@@H](CS)C(=O)N[C@H](C(=O)N[C@@H](CC(N)=O)C(=O)N[C@@H](CCCNC(=N)N)C(=O)N1CCC[C@H]1C(=O)N[C@@H](Cc1ccc(O)cc1)C(N)=O)[C@@H](C)O` [PN951] (H-HHHHHHRSVCRQIKICRRRGGCYYKCTNRPY-NH2), for which the viability at 3 h, 1 µM in data set [1] was 97.2%. Further, the viability at 3 h, 10 µM in data set [1] came to 99.1%. The molecule also had a viability at 3 h, 100 µM in data set [1] of 97.9%. Besides, the “% Cell-Uptake” value was determined as 31.8% in data set [2] (setting [3]), 80.1% in data set [2] (setting [4]) and 45.7% in data set [2] (setting [5]). In addition, the MFI in data set [2] (setting [6]) was 4.02; in data set [2] (setting [7]) it was 14.3; in data set [2] (setting [8]), 9.19.
The molecule `CC[C@H](C)[C@H](NC(=O)[C@H](C)NC(=O)CNC(=O)[C@H](Cc1ccccc1)NC(=O)[C@@H](NC(=O)[C@H](CCC(=O)O)NC(=O)[C@H](CC(N)=O)NC(=O)CNC(=O)[C@H](Cc1c[nH]c2ccccc12)NC(=O)[C@H](CCC(=O)O)NC(=O)CNC(=O)[C@H](CCSC)NC(=O)[C@@H](NC(=O)[C@H](CC(=O)O)NC(=O)[C@@H]1CCCN1C(=O)[C@H](CCC(N)=O)NC(=O)[C@H](CO)NC(=O)[C@H](CCCCN)NC(=O)[C@H](CCCCN)NC(=O)[C@H](CCCCN)NC(=O)[C@H](CCCCN)NC(=O)[C@H](CCCCN)NC(=O)[C@H](CCCCN)NC(=O)[C@H](CCCCN)NC(=O)[C@H](CCCCN)NC(=O)CCN1C(=O)C=CC1=O)[C@@H](C)CC)[C@@H](C)CC)C(=O)N[C@@H](C)C(=O)NCC(=O)N[C@@H](Cc1ccccc1)C(=O)N[C@@H](CC(C)C)C(=O)NCC(N)=O` [PN947] ({Propanoyl(3-maleimido)}-KKKKKKKKSQPDIMGEWGNEIFGAIAGFLG-NH2; N-terminus assumed) yielded a viability at 3 h, 1 µM in data set [1] of 98.7%. The molecule also registered a viability at 3 h, 10 µM in data set [1] of 97.9%. For the same molecule, the viability at 3 h, 100 µM in data set [1] is 99.3%. The “% Cell-Uptake” value in data set [2] (setting [3]) was 2.8%; in data set [2] (setting [4]) it was 12.3%; in data set [2] (setting [5]), 49.5%. For the same molecule, the MFI in data set [2] (setting [6]) is reported as 1.23; in data set [2] (setting [7]), 1.44; in data set [2] (setting [8]), 4.6.
In data set [1], “H-KHKHKHKHKHKHKHKHKHKH-NH2 [PN938, NH2-(Lys-His)10-amide]” came in with a viability at 3 h, 1 µM of 97.9%; a viability at 3 h, 10 µM of 98.6%; a viability at 3 h, 100 µM of 98.8%. Further, the “% Cell-Uptake” value in data set [2] (setting [3]) was determined as 0.6%. In data set [2] (setting [4]), the “% Cell-Uptake” value came out at 0.5%. For the same molecule, the “% Cell-Uptake” value in data set [2] (setting [5]) amounted to 5.9%.
“H-KHKHKHKHKHKHKHKHKHKHKHKHKHKHKH-NH2 [PN935, NH2-(Lys-His)15-amide]” returned a viability at 3 h, 1 µM in data set [1] of 98.1%. In data set [1], this molecule returned a viability at 3 h, 10 µM of 97.3%. The viability at 3 h, 100 µM in data set [1] was 96.6%. Also, the “intracellular delivery of siRNA (verbal conclusion from cell-uptake and cell viability)” value in data set [2] (conclusion drawn from Table 3) is listed as “effective intracellular delivery of siRNA without negatively impacting cell viability”. The “% Cell-Uptake” value in data set [2] (setting [3]) was found to be 20.3%; in data set [2] (setting [4]) it was 36.1%; in data set [2] (setting [5]) it was 24.6%. For the same molecule, the MFI was found to be 1.94 in data set [2] (setting [6]), 2.2 in data set [2] (setting [7]) and 2.16 in data set [2] (setting [8]).
“H-KETWWETWWTEWSQPGRKKRRQRRRPPQ-NH2 [PN183, reference compound]”: in data set [1], the viability at 3 h, 1 µM is 96%. In data set [1], the viability at 3 h, 10 µM was 96.8%. In data set [1], this molecule came in with a viability at 3 h, 100 µM of 76.7%. Further, the percent cell-uptake entry in data set [2] (concentration not given) was “approximately 59%”. Moreover, the MFI in data set [2] (concentration not given) was about 11; in data set [2] (setting [6]), 3.61; in data set [2] (setting [7]), 3.77; in data set [2] (setting [8]) it was 10.5. For the same molecule, the “% Cell-Uptake” value in data set [2] (setting [3]) is given as 9.3%; in data set [2] (setting [4]), 47.4%; in data set [2] (setting [5]), 58.9%.
